The values that follow come from US9440956B2, “Indole, indazole and benzimidazole arylamides as P2X3 and P2X2/3 antagonists” (Roche Palo Alto LLC, priority 2010, dated 2016).

The structures appear in SMILES notation.

The target of one test is T1, rat P2X3 receptor (Rattus norvegicus, UniProt P49654).
T1 construct: expressed in transfected cells; host or cells: CHO-K1
T1 sequence (P49654 1-397): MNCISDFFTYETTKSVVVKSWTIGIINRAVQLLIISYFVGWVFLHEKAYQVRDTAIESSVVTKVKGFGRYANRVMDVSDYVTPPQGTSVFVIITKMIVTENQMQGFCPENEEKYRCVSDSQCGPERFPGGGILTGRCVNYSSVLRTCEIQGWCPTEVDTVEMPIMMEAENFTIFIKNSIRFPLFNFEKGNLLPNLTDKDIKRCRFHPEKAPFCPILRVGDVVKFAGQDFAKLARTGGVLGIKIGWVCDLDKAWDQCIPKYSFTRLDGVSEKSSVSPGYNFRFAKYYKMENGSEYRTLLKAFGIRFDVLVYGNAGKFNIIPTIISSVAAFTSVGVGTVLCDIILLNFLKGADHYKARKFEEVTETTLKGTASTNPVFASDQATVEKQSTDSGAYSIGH
Description: P2X3 FLIPR (Fluorometric Imaging Plate Reader) assay. The note with it: CHO-K1 cells transfected with cloned rat P2X3; agonist α,β-meATP 1 μM; Fluo-3 calcium fluorescence. In kind it is cell-based. The procedure: (§1) P2X3/P2X2/3 FLIPR (Fluorometric Imaging Plate Reader) Assay
(§2) CHO-K1 cells were transfected with cloned rat P2X3 or human P2X2/3 receptor subunits and passaged in flasks. 18-24 hours before the FLIPR experiment, cells were released from their flasks, centrifuged, and resuspended in nutrient medium at 2.5×10^5 cells/ml. The cells were aliquoted into black-walled 96-well plates at a density of 50,000 cells/well and incubated overnight in 5% CO2 at 37° C. On the day of the experiment, cells were washed in FLIPR buffer (calcium- and magnesium-free Hank's balanced salt solution, 10 mM HEPES, 2 mM CaCl2, 2.5 mM probenecid; FB). Each well received 100 μl FB and 100 μl of the fluorescent dye Fluo-3 AM [2 μM final conc.]. After a 1 hour dye loading incubation at 37° C., the cells were washed 4 times with FB, and a final 75 μl/well FB was left in each well.
(§3) Test compounds (dissolved in DMSO at 10 mM and serially diluted with FB) or vehicle were added to each well (25 μl of a 4× solution) and allowed to equilibrate for 20 minutes at room temperature. The plates were then placed in the FLIPR and a baseline fluorescence measurement (excitation at 488 nm and emission at 510-570 nm) was obtained for 10 seconds before a 100 μl/well agonist or vehicle addition. The agonist was a 2× solution of α,β-meATP producing a final concentration of 1 μM (P2X3) or 5 μM (P2X2/3). Fluorescence was measured for an additional 2 minutes at 1 second intervals after agonist addition. A final addition of ionomycin (5 μM, final concentration) was made to each well of the FLIPR test plate to establish cell viability and maximum fluorescence of dye-bound cytosolic calcium. Peak fluorescence in response to the addition of α,β-meATP (in the absence and presence of test compounds) was measured and inhibition curves generated using nonlinear regression. PPADS, a standard P2X antagonist, was used as a positive control.

The target in the next test is T2, human P2X2/3 receptor (Homo sapiens, UniProt P56373+Q9UBL9).
T2 construct: expressed in transfected cells; host or cells: CHO-K1
T2 sequence (Q9UBL9 1-471): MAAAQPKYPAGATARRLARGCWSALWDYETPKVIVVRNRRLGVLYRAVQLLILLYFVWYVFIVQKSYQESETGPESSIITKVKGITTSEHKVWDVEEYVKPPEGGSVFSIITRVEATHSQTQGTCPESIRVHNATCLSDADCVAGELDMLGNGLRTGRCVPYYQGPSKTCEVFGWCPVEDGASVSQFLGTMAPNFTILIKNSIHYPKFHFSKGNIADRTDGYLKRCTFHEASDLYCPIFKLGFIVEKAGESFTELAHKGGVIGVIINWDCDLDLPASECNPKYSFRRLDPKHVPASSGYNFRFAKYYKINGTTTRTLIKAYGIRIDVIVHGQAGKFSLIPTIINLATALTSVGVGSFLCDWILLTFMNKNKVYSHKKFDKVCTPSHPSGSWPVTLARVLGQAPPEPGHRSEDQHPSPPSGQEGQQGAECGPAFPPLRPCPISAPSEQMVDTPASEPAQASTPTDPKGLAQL
T2 sequence (P56373 1-397): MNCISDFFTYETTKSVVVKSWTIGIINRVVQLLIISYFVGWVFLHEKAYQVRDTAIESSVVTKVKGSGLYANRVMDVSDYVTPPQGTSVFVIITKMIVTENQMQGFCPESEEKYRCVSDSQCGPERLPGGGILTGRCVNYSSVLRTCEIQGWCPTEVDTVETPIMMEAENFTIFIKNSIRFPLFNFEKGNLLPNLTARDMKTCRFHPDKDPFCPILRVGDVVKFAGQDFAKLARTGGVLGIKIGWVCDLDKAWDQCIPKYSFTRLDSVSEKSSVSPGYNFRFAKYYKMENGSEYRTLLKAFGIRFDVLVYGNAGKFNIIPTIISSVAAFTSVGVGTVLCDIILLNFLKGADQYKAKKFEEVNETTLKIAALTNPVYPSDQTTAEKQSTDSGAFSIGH
Description: P2X2/3 FLIPR (Fluorometric Imaging Plate Reader) assay. In kind it is cell-based. The settings on record: CHO-K1 cells transfected with human P2X2/3; agonist α,β-meATP 5 μM; Fluo-3 calcium fluorescence. The procedure: as §1, §2, §3

For the compound `Cc1ccc(-c2cc(C(=O)NCc3ccc(C)nn3)cc3c2ccn3C(C)C)nc1` [Compound 25, 1-Isopropyl-4-(5-methyl-pyridin-2-yl)-1H-indole-6-carboxylic acid (6-methyl-pyridazin-3-ylmethyl)-amide], the “pKi P2X3” value at rat P2X3 receptor is 7.27. The “pKi P2X2/3” value on human P2X2/3 receptor came out at 5.32.

For the compound `Cc1ccc(-c2cc(C(=O)NCc3ccc(C)nn3)cc3c2cnn3CCC(C)C)nc1` [Compound 8, 1-(3-Methyl-butyl)-4-(5-methyl-pyridin-2-yl)-1H-indazole-6-carboxylic acid (6-methyl-pyridazin-3-ylmethyl)-amide], the “pKi P2X3” value at rat P2X3 receptor amounted to 7.66. In addition, on human P2X2/3 receptor, the “pKi P2X2/3” value was 6.23.

Consider `Cc1ccc(-c2cc(C(=O)NCc3cnc(C)cn3)cc3c2ccn3CC(C)C)nc1` [Compound 21, 1-Isobutyl-4-(5-methyl-pyridin-2-yl)-1H-indole-6-carboxylic acid (5-methyl-pyrazin-2-ylmethyl)-amide], for which the “pKi P2X3” value at rat P2X3 receptor was 7.17. For the same compound, on human P2X2/3 receptor, the “pKi P2X2/3” value was 5.92. The corresponding values for `Cc1ccc(-n2ncc3c(-c4ccc(C)cn4)cc(C(=O)NCc4cnc(C)cn4)cc32)cc1` [Compound 16, 4-(5-Methyl-pyridin-2-yl)-1-p-tolyl-1H-indazole-6-carboxylic acid (5-methyl-pyrazin-2-ylmethyl)-amide] are 7.7 and 6.4.

On to `Cc1ccc(-n2ncc3c(-c4ccc(C)cn4)cc(C(=O)N[C@@H](C)CO)cc32)cc1` [Compound 17, 4-(5-Methyl-pyridin-2-yl)-1-p-tolyl-1H-indazole-6-carboxylic acid ((S)-2-hydroxy-1-methyl-ethyl)-amide], for which the “pKi P2X3” value at rat P2X3 receptor is recorded as 7.38. The “pKi P2X2/3” value on human P2X2/3 receptor was determined as 4.97. For the compound `Cc1ccc(-c2cc(C(=O)NCc3cnc(C)cn3)cc3c2cnn3CC(C)C)nc1` [Compound 1, 1-Isobutyl-4-(5-methyl-pyridin-2-yl)-1H-indazole-6-carboxylic acid (5-methyl-pyrazin-2-ylmethyl)-amide], the “pKi P2X3” value on rat P2X3 receptor turned out to be 7.3. Besides, on human P2X2/3 receptor, the “pKi P2X2/3” value is 5.78. The corresponding values for `Cc1ccc(-c2cc(C(=O)N[C@@H](C)CO)cc3c2cnn3-c2ccccc2C(C)C)nc1` [Compound 20, 1-(2-Isopropyl-phenyl)-4-(5-methyl-pyridin-2-yl)-1H-indazole-6-carboxylic acid ((S)-2-hydroxy-1-methyl-ethyl)-amide] are 7.55 and 6.19.

Consider `CCCCn1ncc2c(-c3ccc(C)cn3)cc(C(=O)NCc3cnc(C)cn3)cc21` [Compound 2, 1-Butyl-4-(5-methyl-pyridin-2-yl)-1H-indazole-6-carboxylic acid (5-methyl-pyrazin-2-ylmethyl)-amide], for which, at rat P2X3 receptor, the “pKi P2X3” value is on record as 7.38. Moreover, the “pKi P2X2/3” value at human P2X2/3 receptor is reported as 6.34.

With `Cc1ccc(-c2cc(C(=O)NCc3ccc(C)nn3)cc3c2cnn3CC(F)(F)F)nc1` [Compound 13, 4-(5-Methyl-pyridin-2-yl)-1-(2,2,2-trifluoro-ethyl)-1H-indazole-6-carboxylic acid (6-methyl-pyridazin-3-ylmethyl)-amide], the “pKi P2X3” value on rat P2X3 receptor is 7.19. Besides, on human P2X2/3 receptor, the “pKi P2X2/3” value came out at 6.51. `Cc1ccc(-c2cc(C(=O)NCc3cnc(C)cn3)cc3c2ccn3C(C)C)nc1` [Compound 26, 1-Isopropyl-4-(5-methyl-pyridin-2-yl)-1H-indole-6-carboxylic acid (5-methyl-pyrazin-2-ylmethyl)-amide]: the “pKi P2X3” value at rat P2X3 receptor is listed as 6.26. With `Cc1ccc(-c2cc(C(=O)N[C@@H](C)CO)cc3c2cnn3Cc2ccccc2)nc1` [Compound 10, 1-Benzyl-4-(5-methyl-pyridin-2-yl)-1H-indazole-6-carboxylic acid ((S)-2-hydroxy-1-methyl-ethyl)-amide], at rat P2X3 receptor, the “pKi P2X3” value came out at 6.2. For the same compound, the “pKi P2X2/3” value at human P2X2/3 receptor was 5.61. `Cc1ccc(-c2cc(C(=O)NCc3cnc(C)cn3)cc3c2ncn3CC(C)C)nc1` [Compound 28, 3-Isobutyl-7-(5-methyl-pyridin-2-yl)-3H-benzoimidazole-5-carboxylic acid (5-methyl-pyrazin-2-ylmethyl)-amide]: the “pKi P2X3” value on rat P2X3 receptor turned out to be 6.46. As to `Cc1ccc(-c2cc(C(=O)N[C@@H](C)CO)cc3c2ncn3CC(C)C)nc1` [Compound 29, 3-Isobutyl-7-(5-methyl-pyridin-2-yl)-3H-benzoimidazole-5-carboxylic acid ((S)-2-hydroxy-1-methyl-ethyl)-amide], at rat P2X3 receptor, the “pKi P2X3” value came out at 5.24.

On to `Cc1ccc(-c2cc(C(=O)NCc3cnc(C)cn3)cc3c2cnn3C(C)C)nc1` [Compound 4, 1-Isopropyl-4-(5-methyl-pyridin-2-yl)-1H-indazole-6-carboxylic acid (5-methyl-pyrazin-2-ylmethyl)-amide], for which the “pKi P2X3” value on rat P2X3 receptor was found to be 6.58. On human P2X2/3 receptor, the “pKi P2X2/3” value is 4.92. The corresponding values for `Cc1ccc(-c2cc(C(=O)NCc3ccc(C)nn3)cc3c2cnn3Cc2ccccc2)nc1` [Compound 11, 1-Benzyl-4-(5-methyl-pyridin-2-yl)-1H-indazole-6-carboxylic acid (6-methyl-pyridazin-3-ylmethyl)-amide] are 7.62 and 6.56. The corresponding values for `Cc1ccc(-c2cc(C(=O)NCc3cnc(C)cn3)cc3c2cnn3CCC(C)C)nc1` [Compound 7, 1-(3-Methyl-buty)-4-(5-methyl-pyridin-2-yl)-1H-indazole-6-carboxylic acid (5-methyl-pyrazin-2-ylmethyl)-amide] are 7.47 and 6.17. With `Cc1ccc(-c2cc(C(=O)NCc3cnc(C)cn3)cc3c2cnn3-c2ccccc2)nc1` [Compound 14, 4-(5-Methyl-pyridin-2-yl)-1-phenyl-1H-indazole-6-carboxylic acid (5-methyl-pyrazin-2-ylmethyl)-amide], the “pKi P2X3” value at rat P2X3 receptor turned out to be 7.44. In addition, the “pKi P2X2/3” value on human P2X2/3 receptor stood at 6.54.

Consider `Cc1ccc(-c2cc(C(=O)N[C@@H](C)CO)cc3c2cnn3C(C)C)nc1` [Compound 5, 1-Isopropyl-4-(5-methyl-pyridin-2-yl)-1H-indazole-6-carboxylic acid ((S)-2-hydroxy-1-methyl-ethyl)-amide], for which the “pKi P2X2/3” value on human P2X2/3 receptor is listed as 5.

Take `Cc1ccc(-c2cc(C(=O)N[C@@H](C)CO)cc3c2ccn3C(C)C)nc1` [Compound 27, 1-Isopropyl-4-(5-methyl-pyridin-2-yl)-1H-indole-6-carboxylic acid ((S)-2-hydroxy-1-methyl-ethyl)-amide]: the “pKi P2X3” value on rat P2X3 receptor was 5.48. On the same count and under the same terms, for `CCCCn1ncc2c(-c3ccc(C)cn3)cc(C(=O)N[C@@H](C)CO)cc21` [Compound 3, 1-Butyl-4-(5-methyl-pyridin-2-yl)-1H-indazole-6-carboxylic acid ((S)-2-hydroxy-1-methyl-ethyl)-amide] the value was 6.31.
